Experimental data as given in paper PMC6370294 (Journal of biological inorganic chemistry : JBIC : a …, 2018).

Legend:
5G-XoxF = target: T1, 5G-XoxF (Methylotuvimicrobium buryatense, UniProt A0A3F2YLY8); assay: DCPIP dye-linked dehydrogenase assay, A600; format: biochemical; settings: PMS mediator, DCPIP acceptor; La(III) enzyme; 30 °C; 1.5 μM enzyme
T1 sequence (A0A3F2YLY8 27-617): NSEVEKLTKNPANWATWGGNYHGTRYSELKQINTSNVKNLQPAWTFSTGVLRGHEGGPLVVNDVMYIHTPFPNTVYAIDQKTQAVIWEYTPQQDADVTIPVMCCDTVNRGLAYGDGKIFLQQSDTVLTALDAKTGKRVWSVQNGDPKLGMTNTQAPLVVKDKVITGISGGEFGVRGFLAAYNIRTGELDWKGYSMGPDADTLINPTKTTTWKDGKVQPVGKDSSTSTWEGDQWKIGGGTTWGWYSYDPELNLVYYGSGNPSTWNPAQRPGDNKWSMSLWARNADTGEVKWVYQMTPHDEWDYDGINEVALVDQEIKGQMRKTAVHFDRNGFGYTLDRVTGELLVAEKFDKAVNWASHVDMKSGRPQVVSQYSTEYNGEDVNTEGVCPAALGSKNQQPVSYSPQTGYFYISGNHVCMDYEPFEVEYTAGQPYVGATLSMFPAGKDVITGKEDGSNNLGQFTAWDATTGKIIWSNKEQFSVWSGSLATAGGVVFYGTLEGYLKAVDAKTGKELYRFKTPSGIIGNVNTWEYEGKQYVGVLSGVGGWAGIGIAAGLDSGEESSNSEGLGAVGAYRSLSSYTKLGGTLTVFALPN

[1] = target: XoxF from Methylomicrobium buryatense 5GB1C (Methylomicrobium buryatense 5GB1C); assay: BLI

Kd [1] [µM] | Molecule | specific activity (5G-XoxF)
– | CO [methanol] | Purified 5G-XoxF exhibits methanol oxidation activity
50 | particulate methane monooxygenase from Methylomicrobium buryatense 5GB1C (complex) | –
